Experimental data as given in ChEMBL document CHEMBL1121794, “Octanol-physiological buffer distribution coefficients of lipophilic amines by reversed-phase high-performance liquid chromatography and their correlation with biological activity” (J Med Chem, 1981).

Tests used:
[1] = organism: Rattus norvegicus
[2] = not given; remark: listed apart in the source
[3] = Partition coefficient (logD7.4); details: octanol/water, pH 7.4
[4] = not given; remark: listed apart in the source
[5] = Dissociation constant (pKa); details: octanol/water, pH 7.4
[6] = organism: Rattus norvegicus; remark: listed apart in the source
Description: Apparent partition coefficient was measured as histamine releasing activity in rat mast cells.

[7] = not given; remark: listed apart in the source

SMILES: CN(C)CCCN1c2ccccc2CCc2ccc(Cl)cc21 [CLOMIPRAMINE]
- Log k': 2.072
- Log 1/ED50 [1]: 2.22
- Log k' [2]: 1.593
- logD [3]: 3.24
- Log k' [4]: 1.041
- pKa [5]: 9.5
- Papp [6]: 2.8
- Log k' [7]: 1.479
